In PubChem BioAssay AID1159559 (GlaxoSmithKline (GSK), 2015):
Activity calls are given as the source filed them.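 The calls were made as follows: active = compounds whose IC50 against parasite growth in infected mouse cells is below 50000 nM; inactive = the rest.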

System: T. cruzi Tulahuen in NIH-3T3, beta-gal fluorescence, 4 d
Experiment: anti-Chagas amastigote proliferation inhibitors – cell-based (AID 1159559)

Row | SMILES | IC50
1 | Cc1cc(Oc2cc(Cl)c(Cl)cc2Cl)n2ncnc2n1 | 5000 nM
2 | CS(=O)(=O)N1CCC(Nc2ncc(Br)c(Nc3cccc(F)c3C(N)=O)n2)CC1 | 320 nM
3 | COc1ccc(-c2cc(C)no2)cc1S(=O)(=O)Nc1ccc(C)c(C)c1 | 5000 nM
4 | Cc1cccc(NS(=O)(=O)c2ccc3c(c2)C(=O)c2cc(S(=O)(=O)Nc4cccc(C)c4C)ccc2-3)c1C | 400 nM
5 | COc1ccc2ncc(Cl)c(CCN3CC[C@H](NCc4cc5c(cn4)OCS5)[C@@H](O)C3)c2n1 | 130 nM
6 | Cc1cccc(NS(=O)(=O)c2cnc3sc(C)cn3c2=O)c1 | 1300 nM
7 | Cc1cc(Br)sc1CNCCCNc1cc(=O)c2ccccc2[nH]1 | 1600 nM
8 | Oc1c(-c2n[nH]c(Cc3ccc(F)cc3)n2)ncc2cccnc12 | 160 nM
9 | CC(C)CC(=O)Nc1cc(C2CC2)nn1-c1nc2c(c(=O)[nH]1)CCCC2 | 790 nM
10 | CN1CCCN(C(=O)c2ccc(N3CCCC3)cc2Cl)CC1 | 790 nM
11 | Cc1ccc(Nc2nc(C3CCCN3Cc3ccn[nH]3)cs2)nc1 (stereo unspecified) | 790 nM
12 | CNc1c(C(N)=O)c(-c2ccc3scnc3c2)nn1CC(F)(F)F | 130 nM
13 | O=C(Nc1nc2cc(Cl)ccc2o1)c1cccc(Cl)c1 | 790 nM
14 | CC(C(=O)Nc1ccccc1F)N(C)CC(=O)Nc1cccc2ccccc12 (stereo unspecified) | 400 nM
15 | COc1ccc(NS(=O)(=O)c2cc(NC(=O)Cc3ccc(C)cc3)ccc2N2CCOCC2)cc1 | 2000 nM
16 | CS(=O)(=O)c1ccc(CC(=O)Nc2nc(-c3ccc(Cl)s3)cs2)cc1 | 400 nM
17 | O=C(Nc1nc(-c2ccccn2)cs1)c1ccc(S(=O)(=O)N2CCCCC2)cc1 | 630 nM
18 | O=[N+]([O-])c1ccc(-c2nnn(-c3cccnc3)n2)o1 | 250 nM
19 | N#Cc1nc(C=Cc2ccccc2)oc1NCc1cccnc1 | 250 nM
20 | COc1ccc2nccc([C@H](O)CN3CC[C@H](NC(=O)c4ccc(Br)cc4)[C@@H](O)C3)c2n1 | 250 nM
21 | FC(F)(F)c1cc(C2CCCN(Cc3c[nH]c4ccccc34)C2)nc2ncnn12 (stereo unspecified) | 1600 nM
22 | COc1ccccc1C(=O)Nc1nnc(-c2ccc3c(c2)OCO3)s1 | 2500 nM
23 | COc1ccc(C2CC(c3ccccc3Cl)=NN2C(=O)CNC(=O)C2CCC2)cc1 (stereo unspecified) | 2500 nM
24 | C[C@@H](Oc1cc(-n2cnc3cc(N)ccc32)sc1C(N)=O)c1ccccc1Cl | 1300 nM
25 | c1ccc(-c2nc(NCc3ccco3)c3ccccc3n2)nc1 | 6300 nM
26 | COc1ccc2ncc(Cl)c(CCN3CC[C@@H](NCc4cc5c(cn4)OCS5)[C@H](O)C3)c2n1 | 130 nM

Row | SMILES | IC50
27 | O=C(Nc1ccc(C(=O)N2CCCC2c2ccc3c(c2)OCCCO3)cc1)c1ccco1 (stereo unspecified) | 500 nM
28 | CCC1Oc2cc(S(=O)(=O)N(C)CC(=O)N3CCc4ccccc4C3)c(C)cc2NC1=O (stereo unspecified) | 200 nM
29 | CCN(CC)c1ccc(S(=O)(=O)N(CC)CC)c2nonc12 | 25000 nM
30 | CCCCn1nnnc1CSc1nc(C)cc(C)c1C#N | 320 nM
31 | O=c1[nH]c(C=Cc2cccc(OCCOc3ccccc3)c2)nc(O)c1[N+](=O)[O-] | 790 nM
32 | COc1ccc(Nc2nc(-c3ccccn3)cs2)c(OC)c1 | 4000 nM
33 | CCC(=O)Nc1ccc(C(=O)Nc2ccccc2-c2ccccc2)cc1 | 500 nM
34 | CC(c1ccccn1)N(C)Cc1nc2ccccc2n1C(C)C (stereo unspecified) | 1600 nM
35 | O=C1CN(Cc2ccco2)C2CS(=O)(=O)CC2N1c1ccc(Cl)cc1 (stereo unspecified) | > 50000 nM (inactive)
36 | CCOc1ccccc1C(=O)Nc1nnc(-c2ccc3c(c2)OCO3)s1 | 630 nM
37 | O=c1oc2ccccc2n1C1CCN(Cc2ccccc2-c2cccnc2)CC1 | 500 nM
38 | O=C(Nc1nc(-c2ccc(F)cc2)cs1)c1ccc([N+](=O)[O-])s1 | 200 nM
39 | O=C(CN(Cc1ccccn1)Cc1ccccn1)NCc1ccc(-c2csnn2)cc1 | 4000 nM
40 | CN(C(=O)Nc1ccc2c(c1)CCN(C1CCC1)CC2)c1ccc(C#N)cc1 | 2000 nM
41 | Cc1nc(-c2ccncc2)ncc1C(C)NC(=O)c1ccc(Cl)s1 (stereo unspecified) | 25000 nM
42 | CCN(CC)c1nc(N(C)C)nc2c1CN(Cc1ccccc1)CC2 | 6300 nM
43 | CCCCn1c(=O)c2c(N)onc2n(CCCC)c1=O | 25000 nM
44 | O=C(N1CCc2ccccc2CC1)C1(C(=O)N2CCC(n3c(=O)[nH]c4ncccc43)CC2)CC1 | 630 nM
45 | CC(=O)Nc1ccc(-c2noc(CC3CCCN(Cc4cccc(F)c4C)C3)n2)cc1 (stereo unspecified) | 1000 nM
46 | O=C(CN(c1cccc(C(F)(F)F)c1)S(=O)(=O)c1ccc(Cl)cc1)NCc1ccc(F)c(F)c1 | 790 nM
47 | COc1ccc(CN2C(=O)C(O)(CC(=O)c3ccncc3)c3cc(Br)ccc32)cc1OC (stereo unspecified) | 2500 nM
48 | CC(C)(C)c1cc(NC2CC2)nc(-c2ccccn2)n1 | 1300 nM
49 | O=C(CCCn1cnc([N+](=O)[O-])n1)Nc1cccc(Cl)c1 | 200 nM
50 | O=C(CC1(O)C(=O)N(Cc2cccs2)c2ccc(Br)cc21)c1cccnc1 (stereo unspecified) | 5000 nM
51 | O=c1[nH]c(NCCCNCc2cc(Br)cc(Br)c2)nc2ccsc12 | 630 nM
52 | CCNc1cc(-c2ccccn2)nc(Nc2ccccc2)n1 | 790 nM

Row | SMILES | IC50
53 | COc1cc(F)c2ncc(F)c(CCN3CC[C@H](NCc4cc5c(cn4)OCS5)[C@@H](O)C3)c2c1 | 400 nM
54 | CCOc1ccc(Nc2ccc(S(=O)(=O)N3CCN(C)CC3)cc2[N+](=O)[O-])cc1OCC | 7900 nM
55 | COc1ccc(C(=O)Nc2c(C)nn(COc3cccc(C(F)(F)F)c3)c2C)cc1 | 25000 nM
56 | NS(=O)(=O)c1ccc(Nc2nccc(-c3cnn4ncccc34)n2)cc1 | 2500 nM
57 | CNc1nc(C)nc(N2CCc3cc(C(=O)NCc4ccc(-c5ccn[nH]5)cc4Cl)ccc32)n1 | > 50000 nM (inactive)
58 | Cc1ccc(S(=O)(=O)Nc2ccc(CN3CCN(C(=O)c4cccc(C)c4)CC3)cc2)cc1 | 500 nM
59 | O=C(NCCCn1cnc2ccccc21)c1ccc(NC(=O)c2ccco2)cc1 | 4000 nM
60 | CC(C)(C)C(=O)Nc1cc(C2CC2)nn1-c1nc2c(c(=O)[nH]1)CCCC2 | 500 nM
61 | CCCn1c(NC(=O)Cc2ccc(Cl)cc2)nc2ccccc21 | 630 nM
62 | O=C(NC(c1ccc(Cl)cc1)c1cnccn1)C1CCN(C(=O)Nc2cccc(C(F)(F)F)c2)CC1 (stereo unspecified) | 630 nM
63 | Cn1c(CN2CCN(c3ncc(C(F)(F)F)cc3Cl)CC2)nc2ccncc21 | 790 nM
64 | C[C@@H](Oc1cc(-n2cnc3ccc(O[C@H]4CCNC4)cc32)sc1C(N)=O)c1ccccc1Cl | 3200 nM
65 | Cc1[nH]nc2c1C(c1ccc(OCc3ccccc3F)cc1)SCC(=O)N2 (stereo unspecified) | 2000 nM
66 | CCn1nccc1CN(C)C(=O)C=Cc1ccc(Cl)cc1 | 200 nM
67 | O=C(c1cnn(-c2ccccc2)n1)N1CCCC(n2ccnc2)C1 (stereo unspecified) | 50 nM
68 | CC(C)COC(=O)Nc1ccc(N2CCC(CNS(=O)(=O)c3ccccc3)CC2)c(F)c1 | 10000 nM
69 | CN(C)CCN(C)Cc1ccc(Cl)cc1NS(=O)(=O)c1ccc(Cl)c(Cl)c1 | 1000 nM
70 | CN1CCN(c2nc(-c3ccc(Cl)cc3)c3c(N)n(C)nc3n2)CC1 | 2000 nM
71 | O=C(NNC(=O)c1ccccn1)c1ccc(-c2ccccc2)cc1 | 1600 nM
72 | Cc1cc(C)n(-c2nc(NC(C)C)nc(NC(C)(C)C)n2)n1 | 2000 nM
73 | COc1ccc(CN2CCCCC2c2nc(-c3cccnc3)no2)cc1 (stereo unspecified) | 790 nM
74 | CCCN1CCN(Cc2ccc(S(=O)(=O)Nc3cccc(C)c3)cc2)CC1 | 790 nM
75 | N#Cc1cccc(CNc2ccc(-c3cnn(CC4CC4)c(=O)c3C#N)cc2)c1 | 5000 nM
76 | CC(C)(C)C(Cn1ccnc1)NC(=O)c1ccc2nc(C3CC3)oc2c1 (stereo unspecified) | 100 nM
77 | COc1ccc(C(C)N(C)c2ncc3c(N)nc(N)nc3n2)cc1F (stereo unspecified) | 79 nM
78 | COCCn1c(-c2ccccc2)cnc1NCc1ccccc1OC | 13000 nM

Row | SMILES | IC50
79 | CCCCCNC(=O)c1c[nH]c2ccc(S(=O)(=O)N(C)c3ccc(OCC)cc3)cc2c1=O | 32000 nM
80 | Cc1ccc2nc(N(Cc3cccnc3)C(=O)CCc3ccccc3)sc2c1 | 40 nM
81 | N#Cc1cc(N2CCCC2=O)ccc1Sc1ccccc1CO | 250 nM
82 | Cc1cc(C)c(C#N)c(SCC(=O)c2ccc3c(c2)OCO3)n1 | 2000 nM
83 | Cc1ncsc1CNc1cnc(-c2ccc3c(c2)OCCO3)c(-c2cnn(C)c2)c1 | 13000 nM
84 | O=C(NCCc1nc(-c2ccc(F)c(F)c2)n[nH]1)C1CCCCC1 | 2000 nM
85 | Cc1cc(Nc2ccc(C#N)c(Cl)c2C)n[nH]1 | 25000 nM
86 | Cc1ccccc1OCC(=O)N1CCCN(c2cccnn2)CC1 | 320 nM
87 | CCC(c1ccc(F)cc1)n1cncc1-c1cnn(C)c1 (stereo unspecified) | 200 nM
88 | COc1ccc(-c2nc3ncccc3o2)cc1NC(=O)c1cccs1 | 2000 nM
89 | C=CCOCC1Cn2nc([N+](=O)[O-])nc2O1 (stereo unspecified) | 500 nM
90 | COc1ccc(C(C)(C)C)cc1S(=O)(=O)n1ccnc1 | 130 nM
91 | O=C(CCCNC(=O)c1ccc(Cl)cc1)Nc1nc(-c2ccccn2)cs1 | 6300 nM
92 | O=C(Nc1ccc(C(F)(F)F)cc1)NC1(C(=O)NCc2ccco2)CCCCC1 | 7900 nM
93 | Cc1occc1C(=O)Nc1ccccc1C(=O)Nc1nccs1 | > 50000 nM (inactive)
94 | CC(C)Oc1ccc(C(=O)Nc2ccc(N3CCOCC3)c(Cl)c2)cc1 | 1600 nM
95 | O=C(NCCc1csc(-c2cccc(F)c2)n1)c1ccco1 | 1600 nM
96 | Cc1cc(=O)n2nc(Oc3ccc(C#N)cc3Cl)sc2n1 | 16000 nM
97 | Cc1nn2c(NCCCO)c3c(nc2c1-c1cccs1)CCC3 | 16000 nM
98 | CCC(=O)Nc1ccccc1C(=O)Nc1ccccn1 | > 50000 nM (inactive)
99 | COc1ccc(C)cc1-c1csc(NC(=O)C(C)n2ccnc2)n1 (stereo unspecified) | 63 nM
100 | CC(C)CC(=O)NC(c1cccs1)c1ccc2cccnc2c1O (stereo unspecified) | 1600 nM
101 | C=CCn1nc([N+](=O)[O-])nc1Oc1ccc(Cl)cc1Cl | 250 nM
